Measurements reported in patent US20080095741A1, “R-(+)-alpha-liponic acid for the prevention of diabetes” (MEDA Pharma GmbH & Co. KG, priority 2004, published 2008).
Read-outs that look alike come from different tables or passages of the source.

How the values were obtained:
biobreed rat = assay: Preventive therapy in the biobreed rat model of diabetes (occurrence and progression); assay type: in vivo
Description: The experiments for the primary and secondary prevention of diabetes with α-lipoic acid or its derivatives were investigated using a suitable model system. The biobreed rat is a model of diabetes in which a primary loss of p cells also occurs on account of autoimmune processes. […] A secondary stress of the p cells occurs with the simultaneous development of hyperglycemia on account of the increasing glucose toxicity. Thus, pathogenic processes are reflected in this model that stand in the foreground of the progression of the disease and contribute to the progression in all forms of diabetes.
A preventive therapy with racemic α-lipoic acid as well as the two enantiomers took place in the biobreed rat.
This allows the conclusion that for the primary and secondary prevention of diabetes only the R-configured, dextrorotary enantiomer is suitable, as well as derivatives derived from it with intact dithiolane structure. This can be used just as suitably for the prevention of the secondary loss of function of β cells after transplantation.

NOD mouse = conditions: Faust et al., 1994, cited from earlier work
β cells = conditions: Kaneto et al., 1999; cited from earlier work
[1] = test system: isolated pancreatic cells; conditions: pre-incubation; radical-generating system or activated macrophages; Burkart et al., 1993; cited from earlier work
Biobreed rats [2] = assay: Biobreed rat, development and progression of diabetes determined by weight loss as surrogate; assay type: in vivo; conditions: chronic ip, tromethamine salt
Method: Biobreed rats (male and female, 130-180 g) 5-19 weeks old were chronically treated (ip) with different doses of R-(+)-α-lipoic acid as tromethamine salt. The development and progression of diabetes was determined by weight loss as surrogate. […] Biobreed rats (male and female, 130-180 g) 5-19 weeks old were each chronically treated (ip) with 36.6 mg of different lipoic acid derivatives (as tromethamine salt). The development and progression of diabetes was determined by daily weight measuring as surrogate.

Biobreed rats [3] = assay: Biobreed rat, development and progression of diabetes determined by daily measuring of the blood sugar as surrogate; assay type: in vivo; conditions: chronic ip, tromethamine salt, blood from the caudal vein
Method: Biobreed rats (male and female, 130-180 g) 5-19 weeks old were chronically treated (ip) with different doses of R-(+)-α-lipoic acid as tromethamine salt. The development and progression of diabetes was determined by daily measuring of the blood sugar (taken from the caudal vein) as surrogate. […] Biobreed rats (male and female, 130-180 g) 5-19 weeks old were each chronically treated with 36.6 mg of different lipoic acid derivatives (as tromethamine salt (ip)). with as tromethamine salt. The development and progression of diabetes was determined by daily measuring of the blood sugar (taken from the caudal vein) as surrogate.

Biobreed rats [4] = assay: Biobreed rat, survival time and water consumption as further surrogates; assay type: in vivo; conditions: dose-dependent
Method: The survival time and the water consumption were determined as further surrogates for the occurrence and deterioration of diabetes.

O=C(O)CCCCC1CCSS1 (racemic) [racemic mixture]
occurrence of diabetes (biobreed rat): remained without effect | progression of manifest diabetes (biobreed rat): remained without effect | infiltration with immunocompetent cells into pancreatic tissue (surrogate of β cell destruction) (NOD mouse; chronic administration, without cytotoxin): had no influence | protective action (NOD mouse; with additional intoxication with cyclophosphamide): protective action

O=C(O)CCCC[C@H]1CCSS1 (single isomer, unassigned) [S-(−)- enantiomer]
occurrence of diabetes (biobreed rat): remained without effect | progression of manifest diabetes (biobreed rat): remained without effect

vitamin E
effect on the glucose toxicity of β cells (β cells): no effect

CC(=O)N[C@@H](CS)C(=O)O [N-acetylcystein]
effect on the glucose toxicity of β cells (β cells): a certain protective action

O=C(O)CCCC[C@@H](S)CCS (racemic) [racemic dihydrolipoic acid]
protection of pancreatic cells from lysis [1]: partially protected from lysis

O=C(O)CCCCC1CCSS1 (stereo not drawn) [R-(+)-α-lipoic acid, 1,2-dithiolane-3-pentanoic acid]
occurrence of diabetes (biobreed rat; listed as R-(+)-enantiomer): can be delayed | progression of manifest diabetes (biobreed rat; listed as R-(+)-enantiomer): distinctly attenuated in a dose-dependent manner | progression of diabetes (weight loss as surrogate) (Biobreed rats [2]; Example 1, different doses): delayed progression of diabetes in a dose-dependent manner | progression of diabetes (daily weight measuring as surrogate) (Biobreed rats [2]; Example 2, 36.6 mg): had an effect on the progression of diabetes | progression of a rise in blood sugar (Biobreed rats [3]; Example 3, different doses): delayed progression of a rise in blood sugar in a dose-dependent manner | progression of diabetes (daily blood sugar as surrogate) (Biobreed rats [3]; Example 4, 36.6 mg): had an effect on the progression of diabetes | increase of the consumption of water (Biobreed rats [4]): positive effect | survival time (Biobreed rats [4]): positive effect
